This is an account of results in the NIST ThermoML archive (doi:10.1021/je800087p).

± gives the expanded uncertainty stated by the source.

For series [1] the following is noted: Liquid; Ebulliometric method (Recirculating still).
Series [2] is described as follows: refractive index (Na D-line) (dimensionless). The note with it: 298.15 K; 101.3 kPa; Liquid; Standard Abbe refractometry.

What is called refractive index is the speed of light in vacuum divided by its phase velocity in the sample. In the case of `C1CCOC1` [tetrahydrofuran], in series [1], the Normal boiling temperature was determined as 66.1 ± 0.1 °C. Besides, the refractive index in series [2] amounted to 1.40443 ± 0.0005.

Consider `CC(C)c1ccccc1` [isopropylbenzene], for which the Normal boiling temperature in series [1] came to 152.48 ± 0.1 °C. Also, in series [2], the refractive index is listed as 1.48829 ± 0.00053.

On to `C1CCOCC1` [tetrahydropyran], for which, in series [1], the Normal boiling temperature came to 88.16 ± 0.1 °C. Moreover, the refractive index in series [2] is given as 1.41899 ± 0.00063.
